According to patent US11639530B2, “CD133 related to anticancer agent resistance in colon cancer and use thereof” (KOREA UNIVERSITY RESEARCH AND BUSINESS FOUNDATION, priority 2019, dated 2023):

Tests used:
liver cancer cell line = test: Microscopic analysis of microvesicle and TNT formation (WGA-488/DAPI staining, confocal); format: cell-based
Method: The relationship between EGF and microvesicle and TNT formation was investigated by microscopic analysis. Specifically, after 14 hours of EGF treatment, cells were fixed with 4% paraformaldeyde and treated with WGA-488 and DAPI for 10 minutes to stain the cell membrane and nucleus. Fluorescence intensity was measured using an LSM700 Meta confocal microscope.

[1] = tested on: CD133 expression in a liver cancer cell line; test: CD133 expression (Western blotting) and CD133 ORF promoter luciferase activity after EGF treatment; format: cell-based
Method: After treatment with an inhibitor against an EGF downstream signaling molecule, CD133 expression was investigated. Specifically, for transfection and Western blotting, a specific gene (plasmid vector or siRNA) was expressed in cells using a transfection reagent. For general plasmid vector transfection, 24 hours after transfection, cells were harvested, and for siRNA transfection, 48 hours after transfection, cells were harvested. For Western blotting, the harvested cells were lysed in RIPA buffer, and centrifuged at 12,000 g for 20 minutes at 4° C., followed by collecting a supernatant. The collected supernatant was subjected to SDS-PAGE gel electrophoresis, and transferred onto a nitrocellulose membrane, followed by detecting the expression of a desired protein using suitable antibodies. As a result, it was observed that NF-κB is involved in EGF-induced CD133 expression (FIG. 1B). […] Cells were simultaneously transfected with the luciferase vector and a Renilla plasmid vector for quantification. Twenty-four hours after transfection, the cells were treated with EGF for 14 hours, lysed with lysis buffer and centrifuged to obtain a supernatant, and then luciferase activity was measured using the Luminometer 20/20 (FIG. 1D).

In the case of EGF: epithelial growth factor (EGF), the “microvesicle and TNT formation between cells” value (liver cancer cell line) is reported as “microvesicle and TNT formation increases between cells” and the CD133 expression regulation [1] is reported as “activates NF-κB and regulates CD133 expression at the transcription level”.
